Laboratory results taken from patent US6749864B2, “Stabilized pharmaceutical composition” (Takeda Chemical Industries, Ltd., priority 1986, dated 2004).

Assays:
[1] = Storage of granules of different benzimidazole compounds with heavy magnesium carbonate or lactose, changes in appearance (Experimental Example 2); assay type: physicochemical; set-up: key to Changes in appearance after 1 week at 50° C. and 75% RH: −: No changes; ++: Severely; conditions: for Changes in appearance after 1 week at 50° C. and 75% RH: granules as in Example 5; for stability of the pharmaceutical compositions of the invention: granules with heavy magnesium carbonate, 50° C. and 75% RH, 1 week
Text: Granules were produced in the same manner as in Example 5 except that the compound (A), the compound (C), the compound (D), omeprazole or timoprazole was used instead of the compound (B). […] As a control to each composition, granules were also produced in the same manner except that lactose was used instead of heavy magnesium carbonate and stored under the same conditions.

[2] = Control: lactose instead of heavy magnesium carbonate
[3] = Invention: additive heavy magnesium carbonate

| Compound | Changes in appearance after 1 week at 50° C. and 75% RH [1, 2] | Changes in appearance after 1 week at 50° C. and 75% RH [1, 3] | stability of the pharmaceutical compositions of the invention [1] | melting point |
| --- | --- | --- | --- | --- |
| Cc1c(OCC(F)(F)C(F)(F)F)ccnc1C[S+]([O-])c1nc2ccccc2[nH]1 (stereo not shown) [Compound (A), 2-[[3-methyl-4-(2,2,3,3,3-pentafluoropropoxy)-2-pyridyl]methyl-sulfinyl]benzimidazole] | ++ | − | stable | 161 to 163 °C (dec.) |
| [O-][S+](Cc1ccccn1)c1nc2ccccc2[nH]1 (stereo not shown) [Timoprazole, 2-[(2-Pyridyl)methylsulfinyl]benzimidazole] | ++ | − | stable |  |
| COc1ccc2nc([S+]([O-])Cc3ncc(C)c(OC)c3C)[nH]c2c1 (stereo not shown) [Omeprazole, 5-Methoxy-2-[(4-methoxy-3,5-dimethyl-2-pyridyl)methylsulfinyl]benzimidazole] | ++ | − | stable |  |
